Data: patent US20170088601A1, “CD133 EPITOPES” (CEDARS-SINAI MEDICAL CENTER, priority 2008, published 2017)

Columns and labels:
T2 cells = assay: IFN-γ ELISA of peptide-stimulated CTLs against peptide-pulsed T2 cells; assay type: cell-based, human; conditions: ELISA of supernatant
Description: (§1) The binding of the peptide-primed CTLs to HLA-A2 positive human cells was also tested. To generate dendritic cells, the plastic adherent cells from PBMCs were cultured in AIM-V medium supplemented with recombinant human GM-CSF and recombinant human IL-4 at 37° C. in a humidified incubator with 5% CO2. Six days later, the immature dendritic cells were stimulated with recombinant human TNF-alpha for maturation. Mature dendritic cells were then harvested on day 8, resuspended in PBS at 1×10^6/mL with the indicated peptides (2 μg/mL), and incubated for 2 hours at 37° C. Autologous PBMCs (2×10^6 per well) were cocultured with 2×10^5 per well peptide-pulsed dendritic cells in 2 mL/well of AIM-V medium supplemented with 5% human AB serum and 10 units/mL rhIL-7 (Cell Sciences) in each well of 24-well tissue culture plates.
(§2) On the next day and then every 3 days thereafter, 300 IU/ml of IL-2 was added to the medium. On day 7, lymphocytes were restimulated with autologous dendritic cells in AIM-V medium supplemented with 5% human AB serum, rhIL-2, and rhIL-7 (10 units/mL each). To generate peptide-specific CTLs, CD8 (+) T cells were isolated from healthy donors, then stimulated by autologous DC pulsed with peptide. After three cycle stimulations, these CTLs could efficiently recognize both HLA-A2 and CD133 positive cancer stem cells, as measured by amount of IFN-γ (pg/ml) in supernatant detected by ELISA (Table 2). However, they could not recognize the CD133 positive normal neural stem cells due to their absence of MHC expression.

[1] = tested on: HLA-A2 and CD133 positive cancer stem cells (CSC4); assay: IFN-γ ELISA of peptide-stimulated CTLs against cancer stem cells; assay type: cell-based, human; conditions: ELISA of supernatant
Description: as §1, §2

[2] = biological target: T1, HLA-A2 molecules (HLA-A*0201) on T2 cells (Homo sapiens, UniProt P04439, D140Y/D185E/D98H/E176V/E277Q/G131W/G231S/I119V/I121R/I166T/I218V/L300P/L318F/N151K/N90K/P208A/P217A/Q86G/Q94H/R138H/R169H/T345S); assay: Binding of peptides to HLA-A2 and stability of HLA-A*0201/peptide complexes on T2 cells (BB7.2 mAb staining)
T1 construct: mean fluorescence of peptide preincubated T2 cells; endogenous in cells; host or cells: T2 cells
Description: The cells were then incubated with Brefeldin A (Sigma, St. Louis, Mo.) at 10 μg/ml for 1 hour, washed, incubated at 37° C. for 0, 3, or 6 hours in the presence of Brefeldin A (0.5 μg/ml), and then stained with BB7.2 mAb. […] DC50 was defined as the time required for the loss of 50% of the HLA-A*0201/peptide complexes stabilized at t=0.

[3] = tested on: CD8 (+) T cells from healthy donors; assay: HLA-A*0201/peptide tetramer staining of peptide-induced CTLs, flow cytometry; assay type: cell-based, human
Description: To generate peptide-specific CTLs, CD8 (+) T cells were isolated from healthy donors, then stimulated by autologous DC pulsed with peptide. Specific T cells were generated after PBMCs were stimulated by autologous DC pulsed with irradiated, apoptotic cancer stem cells (CSCs). Phycoerythrin-conjugated HLA-A*0201/peptide tetramers were synthesized. The cells were stained with tetramers (5 ng/ml) in PBS+0.5% human AB serum for 1 hour at room temperature, washed once in the same buffer, stained with anti-human CD8-FITC (BD Biosciences) mAbs for 30 minutes at 4° C. followed by flow cytometry analysis.

[4] = biological target: T2, HLA-A2 molecules on T2 cells (Homo sapiens, UniProt P04439, D140Y/D185E/D98H/E176V/E277Q/G131W/G231S/I119V/I121R/I166T/I218V/L300P/L318F/N151K/N90K/P208A/P217A/Q86G/Q94H/R138H/R169H/T345S); assay: Binding of mouse CD133 peptide to HLA-A2 on T2 cells (BB7.2 mAb, flow cytometry); conditions: 0 μM, 10 μM or 100 μM peptide overnight
T2 construct: mean fluorescence of peptide preincubated T2 cells; endogenous in cells; host or cells: T2 cells
Description: The mouse counterpart of SEQ ID NO:1, […] (SEQ ID NO:11) also bound to HLA-A2, despite having only two amino acid residues in common. T2 cells were incubated overnight with 0 μM, 10 μM, or 100 μM of SEQ ID NO:11. The cells were then incubated with Brefeldin A (Sigma, St. Louis, Mo.) at 10 μg/ml for 1 hour, washed, incubated at 37° C. in the presence of Brefeldin A ([…]), and then stained with BB7.2 mAb. Fluorescence intensity was measured by flow cytometry.

Row | Sequence | IFN-γ induced by PBMC stimulus for CTL generation, target T2 + 117 (T2 cells) [pg/mL] | IFN-γ induced by PBMC stimulus for CTL generation, target T2 + 301 (T2 cells) [pg/mL] | IFN-γ induced by PBMC stimulus for CTL generation, target T2 + 405 (T2 cells) [pg/mL] | IFN-γ induced by PBMC stimulus for CTL generation, target T2 + 708 (T2 cells) [pg/mL] | IFN-γ induced by PBMC stimulus for CTL generation, target T2 + 804 (T2 cells) [pg/mL] | IFN-γ induced by PBMC stimulus for CTL generation, target T2 only (T2 cells) [pg/mL] | IFN-γ induced by PBMC stimulus for CTL generation, target CSC4 [1] [pg/mL] | DC50 (time required for the loss of 50% of the HLA-A*0201/peptide complexes stabilized at t=0) ([2]; 100 μM peptide) [h] | Binding to HLA-A2 / HLA-A*0201 molecules (in words) ([2]; listed as SEQ ID NO:1) | Binding to HLA-A2 / HLA-A*0201 molecules (in words) ([2]; listed as peptide 405) | Tetramer positive cell ([3]; CD8+ T cells stimulated by autologous DC pulsed with peptide, PE HLA-A*0201/peptide tetramer and anti-CD8-FITC) [%] | Immunogenicity (in words) ([3]; overall conclusion of Example 1) | Cell fluorescence (binding to HLA-A2) [4]
1 | FLLPALIFAV (Homo sapien) [CD133-804] | 275 | 148 | 294 | 247 | 409 | 211 | 450 | – | – | – | – | – | –
2 | GLLERVTRI (Homo sapien) [CD133-708] | 281 | 234 | 326 | 286 | 258 | 206 | 403 | – | – | – | – | – | –
3 | ILSAFSVYV (Homo sapien) [CD133-405] | 334 | 311 | 2450 | 394 | 390 | 289 | 2311 | >6 | bound strongly | binds relatively strongly | 3.72 | highly immunogenic | –
4 | LLFIILMPLV (Homo sapien) [CD133-117] | 322 | 247 | 262 | 192 | 336 | 275 | 262 | – | – | – | – | – | –
5 | MLLQVSHYL (Mus Musculus) [SEQ ID NO:11] | – | – | – | – | – | – | – | – | – | – | – | – | increased in a dose-dependent manner
6 | SLNDPLCLV (Homo sapien) [CD133-301] | 174 | 165 | 185 | 214 | 252 | 179 | 390 | – | – | – | – | – | –
